Experimental findings from publication PMC6331899, “Soluble Epoxide Hydrolase Inhibitory Activity of Selaginellin Derivatives from Selaginella tamariscina” (Molecules, 2015) are described below.

For one assay, the target named is T1, sEH (Homo sapiens, UniProt P34913).
T1 construct: purchased Cayman (Ann Arbor, MI, USA) 10011669
T1 sequence (P34913 1-555): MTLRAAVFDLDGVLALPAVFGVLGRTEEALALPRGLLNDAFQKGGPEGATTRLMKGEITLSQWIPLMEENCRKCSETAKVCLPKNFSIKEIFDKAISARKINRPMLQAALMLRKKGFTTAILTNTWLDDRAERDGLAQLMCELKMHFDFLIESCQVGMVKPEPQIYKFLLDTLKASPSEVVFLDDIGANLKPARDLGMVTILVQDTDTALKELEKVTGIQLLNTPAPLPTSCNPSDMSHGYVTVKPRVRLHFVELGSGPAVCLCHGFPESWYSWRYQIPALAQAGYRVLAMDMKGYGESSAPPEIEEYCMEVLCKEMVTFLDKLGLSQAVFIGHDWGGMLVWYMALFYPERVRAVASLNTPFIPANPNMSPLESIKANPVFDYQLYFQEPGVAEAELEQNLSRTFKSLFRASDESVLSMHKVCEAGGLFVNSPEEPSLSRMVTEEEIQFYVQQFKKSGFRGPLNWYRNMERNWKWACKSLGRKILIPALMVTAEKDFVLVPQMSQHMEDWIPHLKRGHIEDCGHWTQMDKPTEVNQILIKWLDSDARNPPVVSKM
Kind of assay: sEH kinetic analysis (Lineweaver-Burk, secondary plot). The note with it: for sEH inhibition type: Lineweaver-Burk plots; for Ki: secondary re-plot of slope vs [I], Equation (3). It is filed as biochemical. The method, then:
To evaluate the inhibitory activity of compounds 1–3 on sEH, their hydrolysis effects on the formation of 6-methoxy-2-naphthaldehyde from (3-phenyl-oxiranyl)-acetic acid cyano-(6-methoxy-naphthalen-2-yl)-methyl ester (PHOME) were evaluated by fluorometric determination using an excitation wavelength of 330 nm and emission wavelength of 465 nm. […]. To evaluate the binding mode between sEH and the inhibitors, a kinetic study was performed using various inhibitors and substrate concentrations.
Secondary plots can be constructed from (3) Slope=km/Vmax+Km[I]/VmaxKi

Assay [1] addresses T2, Soluble epoxide hydrolases (human recombinant) (Homo sapiens, UniProt P34913).
T2 construct: purchased Cayman (Ann Arbor, MI, USA) 10011669
T2 sequence (P34913 1-555): T1 sequence (P34913 1-555)
Put plainly: biochemical. The note with it: triplicate; for inhibition at 100 µM: PHOME substrate, read-out: Inhibitory Rate at 100 μM (%) sEH; for IC50: PHOME hydrolysis, pH 7.0, 37 °C, read-out: sEH IC50. The method, then: To evaluate the binding mode between sEH and the inhibitors, a kinetic study was performed using various inhibitors and substrate concentrations.
NMR spectra was obtained on Bruker Advance 600 and 300 MHz (Bruker; Rheinstetten, Germany) spectrometer. Column chromatography was performed using silica gel (Kieselgel 60; 70–230; and 230–400 mesh; Merck; Darmstadt, Germany) and YMC RP-18 resins. Thin layer chromatography (TLC) was performed using pre-coated silica-gel 60 F254 and RP-18 F254S plates (both 0.25 mm; Merck; Darmstadt, Germany). Spots were visualized by spraying with 10% aqueous H2SO4 solution followed by heating. Methanol; acetonitrile (Sigma-Aldrich; St. Louis, MO, USA) and trifluoroacetic acid (Alfa Aesar; Ward Hill, MA, USA) used in this study were of HPLC grade and the distilled water was prepared by the ultra-pure water manufacturing device (Optimos; Sinhan Science Tech, Daejeon, Korea). […] The quantitative analysis for three selaginellins was carried out on Optimapak C18 (250 mm × 4.6 mm I.D.; 5 μm) column.

The next assay has as its system tyrosinase. Kind of assay: Tyrosinase inhibition. It is filed as biochemical. The settings on record: triplicate.

Regarding `O=C1C=CC(=C(c2ccc(O)cc2)c2c(C#Cc3ccc(O)cc3)cccc2-c2ccc(O)cc2)C=C1` [Compound 1, selaginellin A], on sEH, the sEH inhibition type result is listed as “Noncompetitive” and the Ki stood at 2.9 µM. In assay [1], the inhibition at 100 µM was 92.5 ± 0.8% and the IC50 came to 3.1 ± 0.1 µM. For the same compound, the “Inhibitory Rate at 100 μM (%) Tyrosinase” value in the assay on tyrosinase is 36.2 ± 2.1%.
In the same order, the values of `Cc1ccc(-c2ccc(O)cc2)c(C(=C2C=CC(=O)C=C2)c2ccc(O)cc2)c1C#Cc1ccc(O)cc1` [Compound 2, selaginellin B] are “Noncompetitive”, 6.8 µM, 89.3 ± 2.1%, 8.2 ± 2.2 µM and 32.5 ± 1.5%.
Regarding `O=C1C=CC(=C(c2ccc(O)cc2)c2c(-c3ccc(O)cc3)ccc(CO)c2C#Cc2ccc(O)cc2)C=C1` [Compound 3, selaginellin], at sEH, the sEH inhibition type entry is given as “Noncompetitive” and the Ki came out at 1.8 µM. In addition, in assay [1], the inhibition at 100 µM was determined as 94.5 ± 5% and the IC50 is 4.2 ± 0.2 µM. The “Inhibitory Rate at 100 μM (%) Tyrosinase” value with tyrosinase turned out to be 40.1 ± 3.2%.
